Test results taken from patent US20260232812A1, “BIFUNCTIONAL MOLECULES FOR TARGETED PROTEIN DEGRADATION” (Amphista Therapeutics Limited, priority 2022, published 2026).

Experiments:
Format in all cases: cell-based
SMARCA2 = molecular target: T1, SMARCA2 (Homo sapiens, UniProt P51531); assay: SMARCA2 degradation, HeLa SMARCA2 HiBiT cells (Assay Protocol 1); details: 24 hours after compound addition
T1 construct: a HiBiT tag knocked in at the 3′ end of SMARCA2; host or cells: HeLa SMARCA2 HiBiT knock-in cells
Method: Hela cells with a HiBiT tag knocked in at the 3′ end of SMARCA2 were purchased from Promega (Custom product) (1). HeLa SMARCA2 HiBiT transfected cells were treated with compounds at indicated concentrations using the FlexDrop IQ (Perkin Elmer). 24 hours after compound additions abundance of HiBiT tagged protein was quantified using NanoGlo HiBiT lytic detection system (Promega, N3050). Cell viability was measured using Cell Titre Glow cell viability assay (Promega, G9243). In each case luminescence was measured on a Pherastar platereader.

BRD9 [1] = molecular target: T2, BRD9 (Homo sapiens, UniProt Q9H8M2); assay: Assay Protocol 2 - Degradation of BRD9 (IF) in MV4-11 cells; parameters: host or cells: MV4-11; details: Assay Protocol 2: BRD9 immunofluorescence, 24 hours
T2 sequence (Q9H8M2 1-597): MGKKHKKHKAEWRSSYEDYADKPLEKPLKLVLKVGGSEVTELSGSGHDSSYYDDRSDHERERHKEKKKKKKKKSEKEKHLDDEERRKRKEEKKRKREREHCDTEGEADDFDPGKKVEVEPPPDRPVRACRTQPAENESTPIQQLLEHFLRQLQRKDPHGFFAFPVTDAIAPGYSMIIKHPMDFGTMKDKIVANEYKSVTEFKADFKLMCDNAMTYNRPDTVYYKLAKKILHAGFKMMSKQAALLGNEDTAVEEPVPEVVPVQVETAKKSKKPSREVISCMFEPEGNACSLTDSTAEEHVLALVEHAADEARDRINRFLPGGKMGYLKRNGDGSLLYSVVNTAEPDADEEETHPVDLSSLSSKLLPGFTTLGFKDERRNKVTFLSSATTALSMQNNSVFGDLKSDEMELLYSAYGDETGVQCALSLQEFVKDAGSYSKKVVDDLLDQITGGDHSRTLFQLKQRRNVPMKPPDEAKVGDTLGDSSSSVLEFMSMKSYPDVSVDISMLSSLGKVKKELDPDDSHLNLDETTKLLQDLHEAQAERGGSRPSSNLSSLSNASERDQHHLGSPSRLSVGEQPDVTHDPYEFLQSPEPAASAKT
Method: Assay Protocol 2—Degradation of BRD9 (IF)
A suspension of MV4-11 cells (ATCC CRL-9591) was prepared in phenol red-free assay media (IMDM Thermo Scientific 21056023+10% FBS ATCC 302025) and cells were seeded at 20,000 cells per well (45 μL) in sterile black poly-d-lysine coated 384 well plates (Greiner 781948). Compounds were prepared at 1000× final concentration in DMSO, diluted 1:100 in assay media, and 5 μL compound was added to each well of the cell plate. Cells were incubated for 24 hours at 37° C. with 5% CO2. All the following incubations for immunofluorescence staining were at room temperature. 15 μL of 16% PFA was added to each well (3.7% final concentration) and the cells were fixed for 15 min then washed twice with DPBS. Cells were permeabilised with 0.1% Triton X-100 for 10 min, Triton X-100 was removed, then blocked with 1% BSA in DPBS for 1 hour. Cells were stained with 25 μL anti-BRD9 E4Q3F antibody (CST 48306) diluted 1:25600 in 1% BSA in DPBS for 2-3 hours. Wells were washed twice with DPBS then incubated with 25 μL of 1% BSA containing a 1:1000 dilution of Anti-rabbit Alexa Fluor™ 647 secondary antibody (Thermo Scientific A^21244) and 1 μg/mL Hoechst nuclear counter stain (Abcam ab228551) for 1 hour. Wells were washed twice with DPBS prior to imaging on a Perkin Elmer Operetta CLS with 10× air lens. Images were processed using Harmony High-Content Imaging and Analysis Software (Perkin Elmer) and the mean contrast ratio of Alexa Fluor™ 647 in central nuclei was used to quantify BRD9 protein levels. Data was further analysed using Dotmatics software and % BRD9 remaining was calculated by normalisation to average data from high and low control wells (cells treated with DMSO or 100 nM CFT-8634 respectively).

BRD9 [2] = molecular target: T2, BRD9; assay: Assay Protocol 1 - Degradation of HiBit-BRD9 in HEK293; details: titration up to 10 μM; for Dmax: HEK293, Assay Protocol 1: HiBit-BRD9 in HEK293, 6 h
Method: Assay Protocol 1—Degradation of HiBit-BRD9 in HEK293
HEK293 stably expressing LgBit and containing a HiBit insertion for BRD9 were plated in 384-well tissue culture plates at a density of 8×10^3 per well in a volume of 36 μL and incubated overnight at 37° C. and 5% CO2. Wells were treated with test compounds (11 pt titration up to 10 μM) for 6 h prior to addition of Nano-Glo® Hibit Lytic buffer (1:50 substrate and 1:100 LgBit protein) and reading on a PheraSTAR. Degradation data was plotted and analysed using Prism 8 (Graphpad).

[3] = Assay Protocol 1: HiBit-BRD9 in HEK293, 6 h

T1 sequence (P51531 whole entry): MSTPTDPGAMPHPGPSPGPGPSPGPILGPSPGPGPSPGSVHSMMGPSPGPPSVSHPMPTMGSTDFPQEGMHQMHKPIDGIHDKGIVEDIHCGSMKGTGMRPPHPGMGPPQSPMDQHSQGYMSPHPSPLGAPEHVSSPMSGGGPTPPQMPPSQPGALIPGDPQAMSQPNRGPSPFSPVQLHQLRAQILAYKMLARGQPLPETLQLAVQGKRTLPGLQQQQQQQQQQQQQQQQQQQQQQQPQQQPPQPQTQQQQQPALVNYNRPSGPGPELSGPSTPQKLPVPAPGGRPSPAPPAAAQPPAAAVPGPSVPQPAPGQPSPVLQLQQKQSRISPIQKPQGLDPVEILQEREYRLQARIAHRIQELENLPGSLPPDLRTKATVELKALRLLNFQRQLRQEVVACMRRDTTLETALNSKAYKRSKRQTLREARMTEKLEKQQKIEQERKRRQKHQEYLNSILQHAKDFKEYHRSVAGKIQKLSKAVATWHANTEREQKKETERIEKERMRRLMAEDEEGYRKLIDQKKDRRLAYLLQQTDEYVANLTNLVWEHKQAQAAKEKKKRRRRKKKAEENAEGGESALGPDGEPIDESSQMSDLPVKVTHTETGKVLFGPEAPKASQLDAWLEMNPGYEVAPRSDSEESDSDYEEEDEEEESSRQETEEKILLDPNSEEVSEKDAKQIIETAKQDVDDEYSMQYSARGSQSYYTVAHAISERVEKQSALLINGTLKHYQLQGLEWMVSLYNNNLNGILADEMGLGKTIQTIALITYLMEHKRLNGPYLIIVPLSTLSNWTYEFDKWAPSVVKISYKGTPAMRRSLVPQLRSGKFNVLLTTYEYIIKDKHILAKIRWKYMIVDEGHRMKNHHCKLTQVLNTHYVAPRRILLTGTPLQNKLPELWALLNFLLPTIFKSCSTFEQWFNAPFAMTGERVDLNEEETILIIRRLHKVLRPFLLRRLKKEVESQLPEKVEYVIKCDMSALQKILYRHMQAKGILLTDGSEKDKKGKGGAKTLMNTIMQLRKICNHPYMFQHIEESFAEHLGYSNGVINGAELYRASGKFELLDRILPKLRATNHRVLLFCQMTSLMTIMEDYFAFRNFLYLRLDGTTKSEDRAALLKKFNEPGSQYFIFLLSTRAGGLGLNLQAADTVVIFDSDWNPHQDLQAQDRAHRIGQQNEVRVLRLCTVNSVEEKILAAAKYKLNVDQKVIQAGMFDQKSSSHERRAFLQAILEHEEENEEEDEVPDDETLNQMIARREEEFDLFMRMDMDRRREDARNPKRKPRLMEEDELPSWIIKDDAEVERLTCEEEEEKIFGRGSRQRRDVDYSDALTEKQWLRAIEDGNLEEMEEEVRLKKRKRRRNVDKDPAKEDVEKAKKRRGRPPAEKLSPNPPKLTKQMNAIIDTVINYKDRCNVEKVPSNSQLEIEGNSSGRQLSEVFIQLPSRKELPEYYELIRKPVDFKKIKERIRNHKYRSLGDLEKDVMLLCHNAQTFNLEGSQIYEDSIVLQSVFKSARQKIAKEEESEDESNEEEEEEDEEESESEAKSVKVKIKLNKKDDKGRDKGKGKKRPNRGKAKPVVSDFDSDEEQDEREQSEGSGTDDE

| SMILES | Dmax (SMARCA2) [%] | DC50 (BRD9 [1]) [nM] | DC50 (BRD9 [2]; [3]) [nM] | also measured |
| --- | --- | --- | --- | --- |
| CC(C)[C@@H]1CN(C(=O)/C(C#N)=C/C(C)(C)C)C[C@H]1C(=O)N[C@@H]1CCCN(c2cc(-c3ccccc3O)nnc2N)C1 [SMARCA2j] | 65 to 80 | – | – | – |
| CC(C)(C)/C=C(\C#N)C(=O)N1C[C@@H](C(=O)N[C@@H]2CCCN(c3cc(-c4ccccc4O)nnc3N)C2)[C@H](C2CCCCC2)C1 [SMARCA2h] | 65 to 80 | – | – | – |
| CC(C)C1CC(C(=O)N[C@@H]2CCCN(c3cc(-c4ccccc4O)nnc3N)C2)CN(C(=O)/C(C#N)=C/c2nccs2)C1 (some centres unmarked) [SMARCA2g] | 65 to 80 | – | – | – |
| CC(C)(C)/C=C(\C#N)C(=O)N1CCN(CC(=O)N[C@@H]2CCCN(c3cc(-c4ccccc4O)nnc3N)C2)CC1 [SMARCA2b] | 50 to 65 | – | – | – |
| COc1cc(-c2cn(C)c(=O)c(C)c2C)cc(OC)c1CN(C)C1CCN(C(=O)/C(C#N)=C/C(C)(C)C)CC1 [BRD9d, (E/Z)-2-(4-((2,6-dimethoxy-4-(1,4,5-trimethyl-6-oxo-1,6-dihydropyridin-3-yl)benzyl)(methyl)amino)piperidine-1-carbonyl)-4,4-dimethylpent-2-enenitrile] | – | < 25 | < 25 | – |
| COc1cc(-c2cn(C)c(=O)c(C)c2C)cc(OC)c1CN(C)C1CCN(C(=O)/C(C#N)=C/C23CC(C2)C3)CC1 (mixture of isomers) [BRD9ae, (E/Z)-3-(bicyclo[1.1.1]pentan-1-yl)-2-(4-((2,6-dimethoxy-4-(1,4,5-trimethyl-6-oxo-1,6-dihydropyridin-3-yl)benzyl)(methyl)amino)piperidine-1-carbonyl)acrylonitrile] | – | < 25 | < 25 | Dmax (BRD9 [1]): ≥ 70%; Dmax (BRD9 [2]): ≥ 70% |
| COc1cc(-c2cn(C)c(=O)c(C)c2C)cc(OC)c1CN1CCC2(CC1)CCN(C(=O)/C(C#N)=C/c1cccc(Br)n1)CC2 [BRD9r, (E/Z)-3-(6-bromopyridin-2-yl)-2-(9-(2,6-dimethoxy-4-(1,4,5-trimethyl-6-oxo-1,6-dihydropyridin-3-yl)benzyl)-3,9-diazaspiro[5.5]undecane-3-carbonyl)acrylonitrile] | – | < 25 | < 25 | Dmax (BRD9 [2]): ≥ 70% |
| N#C/C(=C\c1nccs1)C(=O)N1CCCC(C(=O)N[C@@H]2CCCN(c3cc(-c4ccccc4O)nnc3N)C2)C1 (some centres unmarked) [SMARCA2l] | 50 to 65 | – | – | – |
| COc1ccc(C2CC(C(=O)N[C@@H]3CCCN(c4cc(-c5ccccc5O)nnc4N)C3)CN(C(=O)/C(C#N)=C/c3ccn(C)n3)C2)cc1 (some centres unmarked) [SMARCA2i] | 50 to 65 | – | – | – |
| CC(C)C1CC(C(=O)N[C@@H]2CCCN(c3cc(-c4ccccc4O)nnc3N)C2)CN(C(=O)/C(C#N)=C/C(C)(C)C)C1 (some centres unmarked) [SMARCA2f] | 50 to 65 | – | – | – |
| CC(C)(C)/C=C(\C#N)C(=O)N1CCN(CC(=O)N2CCc3[nH]c4nnc(-c5ccccc5O)cc4c3C2)CC1 [SMARCA2e] | 50 to 65 | – | – | – |
| COc1cc(-c2cn(C)c(=O)c(C)c2C)cc(OC)c1CN1C2CC1CN(C(=O)/C(C#N)=C/c1nccs1)C2 (mixture of isomers) [BRD9n, (E/Z)-2-(6-(2,6-dimethoxy-4-(1,4,5-trimethyl-6-oxo-1,6-dihydropyridin-3-yl)benzyl)-3,6-diazabicyclo[3.1.1]heptane-3-carbonyl)-3-(thiazol-2-yl)acrylonitrile] | – | < 25 | < 25 | Dmax (BRD9 [1]): ≥ 70% |
| COc1ccc([C@@H]2CN(C(=O)/C(C#N)=C/c3nccs3)C[C@H]2C(=O)N2CCN(Cc3c(OC)cc(-c4cn(C)c(=O)c(C)c4C)cc3OC)CC2)cc1 [BRD9ah] | – | < 25 | – | Dmax (BRD9 [1]): ≥ 70%; Dmax (BRD9 [2]): 30 to 50% |
| COc1cc(-c2cn(C)c(=O)c(C)c2C)cc(OC)c1CN1CC2CCC(C1)N2C(=O)/C(C#N)=C/c1nccs1 (mixture of isomers) [BRD9q, (E/Z)-2-(3-(2,6-dimethoxy-4-(1,4,5-trimethyl-6-oxo-1,6-dihydropyridin-3-yl)benzyl)-3,8-diazabicyclo[3.2.1]octane-8-carbonyl)-3-(thiazol-2-yl)acrylonitrile] | – | > 200 | > 200 | Dmax (BRD9 [1]): 50 to 70% |
| COc1ccc([C@@H]2CN(C(=O)/C(C#N)=C/c3nccs3)C[C@H]2C(=O)N2CCN(Cc3c(OC)cc(-c4cn(C)c(=O)c(C)c4C)cc3OC)CC2)cc1 [BRD9be] | – | < 25 | – | Dmax^2 (BRD9 [1]): +++ (+++ = ≥70%); Dmax^1 (BRD9 [2]; [3]): ++ (++ = ≥50% and <70%) |
